pIC50: −log10 of the molar value. Like-named read-outs stand apart in the source and are kept apart here.
Columns and labels:
LDL = experiment: Cu++-mediated LDL oxidation, conjugated diene formation at 234 nm; assay type: physicochemical, human; design: Lag time: unit: min; conditions: for Lag time: 20 µM CuSO4, 25°C
Method: Lercanidipine antioxidant capacity was evaluated by incubating LDL With 20 µM Cu^++ in the presence or absence of different concentrations of the tested compound (0.01 µM - 50 µM). LDL oxidation Was followed by monitoring conjugated diene formation at 234 nm. The experimental conditions were as follows. LDL (d = 1.019-1.063) were isolated from human pooled plasma by sequential ultracentrifugation at 4°C and 40,000 rpm in a 50Ti rotor, using a L5-50 ultracentrifuge (Beckman, Palo Alto, CA). LDL were then dialyzed against 0.15 M NaCl containing 0.01% ethylenediaminetetraacetic acid pH 7.4, sterilized by filtration through a […] millipore filter and kept at 4°C under nitrogen in the dark until use (up to 3 weeks). Before use LDL were dialysed against ethylenediaminetetraacetic acid free phosphate buffered saline pH 7.4 on Sephadex G-25 columns (PD-10, Pharmacia Fine Chemicals, Uppsala, Sweden) and then LDL were filtered through a sterile 0.22 µM filter. LDL in phosphate buffered saline (50 µg lipoprotein protein/ml) were oxidized by incubation at 25°C with 20 µM CuSO4 for 3 hours. The lercanidipine solution was prepared as a 10^-2 M stock solution in methanol and added as ethanol solution (maximum 1% v/v) prior to addition of copper. The effect of lercanidipine on the oxidation of LDL was determined by continuous monitoring the conjugated diene formation by recording the increase in the absorbance at 234 nm at 5 min intervals during a three hours period, against a phosphate buffered saline blank, using a UV spectrophotometer (Beckman DU 640) with continuous reading with a automatic 6-cell changer. The lag time of the onset of oxidation was calculated as the intercept between the line of the maximum slope of the propagation phase and the baseline where absorbance was that at time 0.

[1] = test system: Human vascular myocytes (A 617 from human femoral artery); experiment: Myocytes growth inhibition measured by cell count (human); assay type: cell-based; conditions: cell count after 72 hours with 10% fetal calf serum, read-out: IC50 (concentration required to inhibit cell growth by 50%)
Method: Migration of myocytes was investigated for the present invention using rat aortic smooth muscle cells in the presence of fibrinogen as chemotactic factor, whereas for studies on their proliferation rat and human cells were used. Cell count and [^3H]-thymidine incorporation were used to evaluate myocytes growth. The methodology was as follows:
Myocytes were cultured from the intima-medial layer of the aortas of male Sprague-Dawley rats (200-250 g). Cells were grown in monolayers at 37°C in a humidified atmosphere of 5% CO2 in Eagle's minimum essential medium supplemented with 10% (v/v) fetal calf serum, 100 U/ml penicillin, 0.1 mg/ml streptomycin, 20 mM tricine buffer and 1% (v/v) non-essential amino acid solution. The medium was changed every third day. Cells were used between the 4th and 10th passage. Cell viability was timely assessed by tripan blue exclusion. Myocytes were identified for growth behaviour, morphology and using monoclonal antibody specific for a-actin, the actin isoform typical of myocytes. Human vascular myocytes (A 617 from human femoral artery) were grown in the same culture conditions. […] Cell proliferation was evaluated by cell count after trypsinization of the monolayers using a Coulter Counter model ZM. Cell viability was assessed by tripan blue exclusion, and found to be higher than 95% at the drug concentrations used.

[2] = test system: rat aortic smooth muscle cells (myocytes); experiment: Myocytes growth inhibition measured by cell count (rat); assay type: cell-based; conditions: 72 h, cell count after 72 hours with 10% fetal calf serum, read-out: IC50 (concentration required to inhibit cell growth by 50%)
[3] = test system: cell-mediated oxidation of LDL; experiment: Time course of cell-mediated LDL oxidation; assay type: cell-based; conditions: 30 µM, after 10 hours incubation; Figure 7
Method: The antioxidant capacity of lercanidipine and its enantiomers was investigated also on cell-mediated oxidation. This was evaluated by incubating ethylenediaminetetraacetic acid free LDL under sterile conditions With 5 µM Cu^++ (100 µg Apo B/ml) in the presence of J774 cells or alternatively with EAhy-926 cells. Oxidation was blocked after 22 hours incubation by adding butylated hydroxytoluene to the medium (final concentration 40 µM) dissolved in ethanol. The extent of lipid peroxidation was measured by determining the percentage inhibition of aldehydic breakdown products using the thiobarbituric acid assay [A.N. Hanna et al., Biochem. Pharmacol. 45, 753 (1993)]. Briefly, to 0.250 ml of the incubated samples, 0.750 ml of trichloroacetic acid ([…]) was added followed by 0.750 ml of thiobarbituric acid (0.67% w/v). The samples were heated at 100°C for 20 min, followed by cooling and centrifugation. Malondialdehyde equivalents were calculated using 1,1,3,3-tetramethoxy-propane as standard.
In the above experiments of cell-mediated oxidation the effects of lercanidipine were investigated after 22 hours incubation. […]

renal hypertensive dogs = experiment: Blood pressure in renal hypertensive dogs, oral administration; assay type: in vivo, beagle dogs; conditions: for ED25 (dose inducing 25% decrease in DBP at peak effect), 95% C.L.: renal hypertensive dogs, linear regression analysis
Method: The antihypertensive effects of oral assumption of lercanidipine and its enantiomers were tested in renal hypertensive dogs.
Male beagle dogs weighing 12-13 kg, aged 1-3 years (Nossan Allevamenti, Italy) were used. Chronic sustained hypertension was induced by bilateral renal artery constriction, according to the Goldblatt method "two-kidney, two clip hypertension". Under barbiturate anaesthesia (35 mg/kg iv.) during two different surgical interventions one month apart from each other, both renal arteries were clipped with original renal silver clips and narrowed by about 60-70 %. After two months from the last intervention, an experimental renal hypertension was produced and the animals were suitable for the implantation of a catheter. Under sodium pentobarbital anaesthesia (35 mg/kg iv.), in sterile conditions, the dogs were catheterized by inserting an indwelling cannula (PE 200 Clay Adams) into the ascending aorta through the right common carotid artery. The catheter was subcutaneously exteriorized at the back of the neck, filled with heparinized saline solution and daily flushed to prevent clotting. After a week to recover from surgery, the animals were connected to a HP 1290A pressure transducer connected to an HP 8805B carrier amplifier of a Hewlett Packard HP 7700 multichannel polygraph, in order to monitor the arterial blood pressure. Heart rate was manually computed from the pressure trace.
All animals were alternatively treated with placebo, lercanidipine and its (R)- and (S)-enantiomers. The drugs were administered by the oral route with a straight round aseptic tip catheter (Pores Serlat - France). The drugs were suspended in aqueous 0.5% Methocel A4C plus Antifoam M10 (10%). The administered volume was 1 ml/kg. The suspending medicine was used as placebo. During experimental performance, the arterial blood pressure was continuously recorded 30 minutes before (Basal Values) and up to 8 hours after drug administration.
The ED25 values (dose inducing 25% decrease in DBP at peak effect) were evaluated by linear regression analysis and are summarized in Table 4.

[4] = test system: macrophages loaded with cholesterol ester; experiment: Cholesterol esterification in macrophages loaded with cholesterol ester; assay type: cell-based, mouse; conditions: Figure 4; for relative potency on cholesterol esterification: cholesterol ester loaded macrophages
Method: Cholesterol esterification induced by AcLDL in mouse peritoneal macrophages was investigated as follows. Mouse peritoneal macrophages were obtained by peritoneal lavage from mice (Balb/c Charles River, Calco, Italy) three days after intraperitoneal injection of thioglycolate. Cells (2-3x10^6) were plated in 35 mm wells with Dulbecco's minimum essential medium containing 10% fetal bovine serum. After 3 hours, the dishes were washed to eliminate unattached cells and maintained in Dulbecco's minimum essential medium plus 10% fetal bovine serum for 24 hours before use. After cell plating, experiments were performed at 37°C in serum free Dulbecco's minimum essential medium containing 0.2% essentially fatty acid-free bovine serum albumin plus the indicated additions. Human LDL (d=1.019-1.063 g/ml) were isolated from plasma of healthy volunteers by sequential ultracentrifugation (Beckman L5-50, Palo Alto, CA). For acetylation, LDL were dialysed against 0.15 M NaCl, pH 7.4, diluted with an equal volume of saturated sodium acetate and treated with acetic anhydride. For [^125I]AcLDL, lipoproteins were labelled with sodium [^125I]iodide desalted by gel filtration on Sephadex G-25 eluted with phosphate buffered saline. Specific activity was 100-200 cpm/ng protein. Trichloroacetic acid non precipitable radioactivity was below 2% of total. All lipoproteins were sterile filtered. Cells were incubated for 24 hours with the tested compounds. After substitution of the medium with an identical one, incubation was continued for additional 24 hours. During this second incubation [^125I]AcLDL were added (50 µg/ml). Cholesterol esterification was measured after addition of [1-^14C] oleic acid ([…] sample) complexed with bovine serum albumin during the last 1 or 2 hours of incubation and subsequent determination of radioactivity associated with cellular cholesteryl esters. Where indicated cells were enriched with cholesterol by 24 hours incubation with 50 µg/ml of AcLDL before drug addition and experimental determinations.
Another set of experiments was performed to evaluate the effect of lercanidipine on cholesterol esterification in macrophages loaded with cholesterol ester before the addition of the compound, this condition being the same as in foam cells. Cells are loaded with cholesteryl esters by exposure for 24 hours to a medium containing 50 µg acetyl LDL.

[5] = test system: mouse peritoneal macrophages; experiment: Cholesterol esterification induced by AcLDL in macrophages; assay type: cell-based; conditions: comparison of lercanidipine and enantiomers; Figure 3
Method: Cholesterol esterification induced by AcLDL in mouse peritoneal macrophages was investigated as follows. Mouse peritoneal macrophages were obtained by peritoneal lavage from mice (Balb/c Charles River, Calco, Italy) three days after intraperitoneal injection of thioglycolate. Cells (2-3x10^6) were plated in 35 mm wells with Dulbecco's minimum essential medium containing 10% fetal bovine serum. After 3 hours, the dishes were washed to eliminate unattached cells and maintained in Dulbecco's minimum essential medium plus 10% fetal bovine serum for 24 hours before use. After cell plating, experiments were performed at 37°C in serum free Dulbecco's minimum essential medium containing 0.2% essentially fatty acid-free bovine serum albumin plus the indicated additions. Human LDL (d=1.019-1.063 g/ml) were isolated from plasma of healthy volunteers by sequential ultracentrifugation (Beckman L5-50, Palo Alto, CA). […] Trichloroacetic acid non precipitable radioactivity was below 2% of total. […] Cholesterol esterification was measured after addition of [1-^14C] oleic acid ([…] sample) complexed with bovine serum albumin during the last 1 or 2 hours of incubation and subsequent determination of radioactivity associated with cellular cholesteryl esters. […]

`COC(=O)C1=C(C)NC(C)=C(C(=O)OC(C)(C)CN(C)CCC(c2ccccc2)c2ccccc2)C1c1cccc([N+](=O)[O-])c1` (racemic) [Lercanidipine, methyl 1,1,N-trimethyl-N-(3,3-diphenylpropyl)-2-aminoethyl 1,4-dihydro-2,6-dimethyl--4-(3-nitrophenyl)-pyridine-3,5-dicarboxylate] was tested, and the “effect on the lag-phase of LDL oxidation” value (LDL; 10 µM) was “doubled the lag-phase of LDL oxidation”, the “potency on LDL oxidation compared with lacidipine” value (LDL; "in these assays" (LDL oxidation)) was “one order of magnitude higher than that of lacidipine” and the Lag time (LDL; Lercanidipine 0.5 µM) was 45.1 ± 3.7. It also gave a Lag time (LDL; Lercanidipine 1.0 µM) of 49.8 ± 4.7, a Lag time (LDL; Lercanidipine 2.5 µM, P < 0.05) of 53.6 ± 3.3 and a Lag time (LDL; Lercanidipine 5.0 µM, P < 0.01) of 73.2 ± 4.8. The Lag time (LDL; Lercanidipine 10.0 µM, P < 0.01) was 112.7 ± 5.2, the pIC50 [1] was 4.60 and the pIC50 ([2]; Myocytes from SD Rat) was 4.51. The pIC50 ([2]; Myocytes from SHR Rat) was 4.85, the pIC50 ([2]; Myocytes from WK Rat) was 4.79 and the “inhibition of lipid oxidation” value [3] was “very high inhibition of lipid oxidation”. For the same compound, the “effect on arterial blood pressure” value (renal hypertensive dogs) was “dose-related decrease in arterial blood pressure”, the pIC50 ([4]; Mus musculus, Macrophage, cells loaded 24 hours with 50 µg acetyl LDL) was roughly 5.15 and the “inhibition of cholesterol esterification” value ([4]; maximum, cells loaded 24 hours with 50 µg acetyl LDL) was “up to 70%”.

`COC(=O)C1=C(C)NC(C)=C(C(=O)OC(C)(C)CN(C)CCC(c2ccccc2)c2ccccc2)[C@@H]1c1cccc([N+](=O)[O-])c1` [(R)-Lercanidipine, (R)-(-)-methyl 1,1-N-triethyl-N-(3,3-diphenylpropyl)-2-aminoethyl 1,4-dihydro--2,6-dimethyl-4-(3-nitrophenyl)-pyridine-3,5-dicarboxylate] was tested, and the “relative activity on cholesterol esterification induced by AcLDL” value [5] was “most active compound”, the “ED25 (dose inducing 25% decrease in DBP at peak effect), 95% C.L.” value (renal hypertensive dogs) was > > 30 mg/kg and the “relative potency on cholesterol esterification” value [4] was “slightly more potent than the racemate”.

With `COC(=O)C1=C(C)NC(C)=C(C(=O)OC(C)(C)CN(C)CCC(c2ccccc2)c2ccccc2)[C@H]1c1cccc([N+](=O)[O-])c1` [(S)-Lercanidipine, (S)-(+)-methyl 1,1-N-trimethyl-N-(3,3-diphenylpropyl)-2-aminoethyl 1,4-dihydro--2,6-dimethyl-4-(3-nitrophenyl)-pyridine-3,5-dicarboxylate] the “antihypertensive efficacy compared with the racemate” value (renal hypertensive dogs) was “two fold more efficacious than the racemate”, the “effect on arterial blood pressure” value (renal hypertensive dogs) was “dose-related decrease in arterial blood pressure” and the “ED25 (dose inducing 25% decrease in DBP at peak effect), 95% C.L.” value (renal hypertensive dogs) was 0.4 (0.3 ö 0.7) mg/kg. For the same compound, the “relative potency on cholesterol esterification” value [4] was “least potent among the compounds tested”.

`CCOC(=O)C1=C(C)NC(C)=C(C(=O)OCC)C1c1ccccc1/C=C/C(=O)OC(C)(C)C` [LA, Lacidipine, reference compound] showed a pIC50 ([2]; Myocytes from SD Rat) of 4.63.

Work on `COC(=O)C1=C(C)NC(C)=C(C(=O)OCCN(C)Cc2ccccc2)C1c1cccc([N+](=O)[O-])c1` (stereo not drawn) [NI, Nicardipine, reference compound] yielded a pIC50 ([2]; Myocytes from SD Rat) of 4.41.
